PubChem BioAssay AID1963854 (Molecular Pharmacology Branch, DTP, NCI, 2024)

Test system: 186277-243-T-J2-PDC complex spheroid viability
Assay: Anticancer human tumor 186277-243-T-J2-PDC patient-derived colon adenocarcinoma cell line growth inhibition [POLQ]
Settings: for IC50: curve of first compound; for viability, T/C: stronger effect = lower value
Procedure, shortened: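 Growth inhibition in 3D: complex spheroids (tumor PDC, HUVEC, MSC) treated with POLQ inhibitor combinations; where Cmax unknown, highest tested concentration 10 microM, except SN-38 at 1 microM.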

[1] = second compound 0.0316 µM, first compound 0.0316 µM
[2] = second compound 0.0316 µM, first compound 0.1 µM
[3] = second compound 0.0316 µM, first compound 0.316 µM
[4] = second compound 0.0316 µM, first compound 1 µM
[5] = second compound 0.0316 µM, first compound 3.16 µM
[6] = second compound 0.0316 µM, first compound 10 µM
[7] = second compound 0.1 µM, first compound 0.0316 µM
[8] = second compound 0.1 µM, first compound 0.1 µM
[9] = second compound 0.1 µM, first compound 0.316 µM
[10] = second compound 0.1 µM, first compound 1 µM
[11] = second compound 0.1 µM, first compound 3.16 µM
[12] = second compound 0.1 µM, first compound 10 µM
[13] = second compound 0.316 µM, first compound 0.0316 µM
[14] = second compound 0.316 µM, first compound 0.1 µM
[15] = second compound 0.316 µM, first compound 0.316 µM
[16] = second compound 0.316 µM, first compound 1 µM
[17] = second compound 0.316 µM, first compound 3.16 µM
[18] = second compound 0.316 µM, first compound 10 µM
[19] = second compound 1 µM, first compound 0.0316 µM
[20] = second compound 1 µM, first compound 0.1 µM
[21] = second compound 1 µM, first compound 0.316 µM
[22] = second compound 1 µM, first compound 1 µM
[23] = second compound 1 µM, first compound 3.16 µM
[24] = second compound 1 µM, first compound 10 µM
[25] = second compound 3.16 µM, first compound 0.0316 µM
[26] = second compound 3.16 µM, first compound 0.1 µM
[27] = second compound 3.16 µM, first compound 0.316 µM
[28] = second compound 3.16 µM, first compound 1 µM
[29] = second compound 3.16 µM, first compound 3.16 µM
[30] = second compound 3.16 µM, first compound 10 µM
[31] = second compound 10 µM, first compound 0.0316 µM
[32] = second compound 10 µM, first compound 0.1 µM
[33] = second compound 10 µM, first compound 0.316 µM
[34] = second compound 10 µM, first compound 1 µM
[35] = second compound 10 µM, first compound 3.16 µM
[36] = second compound 10 µM, first compound 10 µM
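Also: spheroids exposed to compounds for seven days.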
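For viability, T/C in this document: 100% = DMSO vehicle control viability.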

In the case of `COc1cc2cc(C(=O)CCC(=O)O)sc2cc1OC` + Cc1cccc(N(C)C(=O)C2C(O)CCN2c2nc(C)cc(C(F)(F)F)c2C#N)c1, the IC50 (second compound 0.0316 µM) is reported as > 10 µM, the IC50 (second compound 0.1 µM) is reported as > 10 µM and the IC50 (second compound 0.316 µM) is reported as > 10 µM. For the same molecule, the IC50 (second compound 1 µM) was > 10 µM, the IC50 (second compound 3.16 µM) was > 10 µM and the IC50 (second compound 10 µM) was > 10 µM. It also gave a viability, T/C [1] of 97.6%, a viability, T/C [2] of 87.7% and a viability, T/C [3] of 95%. The viability, T/C [4] was 82.1%, the viability, T/C [5] was 111% and the viability, T/C [6] was 91.6%. The viability, T/C [7] was 88.8%, the viability, T/C [8] was 89.1% and the viability, T/C [9] was 90.5%. For the same molecule, the viability, T/C [10] was 99.7%, the viability, T/C [11] was 105% and the viability, T/C [12] was 99.2%. It also gave a viability, T/C [13] of 101%, a viability, T/C [14] of 91.7% and a viability, T/C [15] of 96.6%. For the same molecule, the viability, T/C [16] was 98.1%, the viability, T/C [17] was 93.5% and the viability, T/C [18] was 103%. It also gave a viability, T/C [19] of 93.2%, a viability, T/C [20] of 93.5% and a viability, T/C [21] of 102%. It also gave a viability, T/C [22] of 109%, a viability, T/C [23] of 101% and a viability, T/C [24] of 113%. The viability, T/C [25] was 106%, the viability, T/C [26] was 112% and the viability, T/C [27] was 92.4%. For the same molecule, the viability, T/C [28] was 99.4%, the viability, T/C [29] was 118% and the viability, T/C [30] was 91.7%. It also gave a viability, T/C [31] of 107%, a viability, T/C [32] of 109% and a viability, T/C [33] of 112%. The viability, T/C [34] was 101%, the viability, T/C [35] was 93.9% and the viability, T/C [36] was 84.4%.
Molecule `CC1COCCN1c1cc(-c2ccnn2C)c2ccnc(-c3ccn[nH]3)c2n1` (stereo not drawn) + Cc1cccc(N(C)C(=O)C2C(O)CCN2c2nc(C)cc(C(F)(F)F)c2C#N)c1 has an IC50 (second compound 0.0316 µM) of 0.0415 µM, an IC50 (second compound 0.1 µM) of 0.0468 µM and an IC50 (second compound 0.316 µM) of 0.0504 µM. It also gave an IC50 (second compound 1 µM) of 0.0489 µM, an IC50 (second compound 3.16 µM) of 0.0468 µM and an IC50 (second compound 10 µM) of 0.0417 µM. It also gave a viability, T/C [1] of 61.5%, a viability, T/C [2] of 13% and a viability, T/C [3] of 5%. The viability, T/C [4] was 4.41%, the viability, T/C [5] was 4.26% and the viability, T/C [6] was 4.75%. The viability, T/C [7] was 69.2%, the viability, T/C [8] was 12.7% and the viability, T/C [9] was 5.72%. For the same molecule, the viability, T/C [10] was 4.22%, the viability, T/C [11] was 3.97% and the viability, T/C [12] was 4.43%. For the same molecule, the viability, T/C [13] was 74.4%, the viability, T/C [14] was 14.2% and the viability, T/C [15] was 5.49%. For the same molecule, the viability, T/C [16] was 4.49%, the viability, T/C [17] was 3.63% and the viability, T/C [18] was 4.89%. The viability, T/C [19] was 72.3%, the viability, T/C [20] was 13.7% and the viability, T/C [21] was 6.05%. For the same molecule, the viability, T/C [22] was 4.53%, the viability, T/C [23] was 4.55% and the viability, T/C [24] was 5.17%. It also gave a viability, T/C [25] of 68.1%, a viability, T/C [26] of 15.1% and a viability, T/C [27] of 5.47%. For the same molecule, the viability, T/C [28] was 4.21%, the viability, T/C [29] was 4.54% and the viability, T/C [30] was 4.6%. It also gave a viability, T/C [31] of 62.2%, a viability, T/C [32] of 11.4% and a viability, T/C [33] of 4.96%. The viability, T/C [34] was 3.76%, the viability, T/C [35] was 5.16% and the viability, T/C [36] was 4.53%.
Molecule `C#Cc1c(F)ccc2cc(O)cc(-c3ncc4c(N5CC6CCC(C5)N6)nc(OCC56CCCN5CC(F)C6)nc4c3F)c12` (stereo not drawn) + Nc1ccc(C#CCN(C(=O)Cc2ncc(C(F)(F)F)cc2C(F)(F)F)c2ccc(F)cc2)nn1 has an IC50 (second compound 0.0316 µM) of 0.315 µM, an IC50 (second compound 0.1 µM) of 0.264 µM and an IC50 (second compound 0.316 µM) of 0.262 µM. It also gave an IC50 (second compound 1 µM) of 0.288 µM, an IC50 (second compound 3.16 µM) of 0.178 µM and an IC50 (second compound 10 µM) of 0.122 µM. For the same molecule, the viability, T/C [1] was 91.2%, the viability, T/C [2] was 96.2% and the viability, T/C [3] was 48.5%. It also gave a viability, T/C [4] of 25.6%, a viability, T/C [5] of 15.5% and a viability, T/C [6] of 10.8%. For the same molecule, the viability, T/C [7] was 116%, the viability, T/C [8] was 93.6% and the viability, T/C [9] was 40.6%. The viability, T/C [10] was 22.1%, the viability, T/C [11] was 19.1% and the viability, T/C [12] was 10.1%. The viability, T/C [13] was 83.5%, the viability, T/C [14] was 97.2% and the viability, T/C [15] was 42%. The viability, T/C [16] was 27.4%, the viability, T/C [17] was 16.1% and the viability, T/C [18] was 10.7%. It also gave a viability, T/C [19] of 103%, a viability, T/C [20] of 91% and a viability, T/C [21] of 44.2%. For the same molecule, the viability, T/C [22] was 22.3%, the viability, T/C [23] was 12.9% and the viability, T/C [24] was 8.94%. The viability, T/C [25] was 87.5%, the viability, T/C [26] was 70.9% and the viability, T/C [27] was 28.8%. It also gave a viability, T/C [28] of 15.3%, a viability, T/C [29] of 12.5% and a viability, T/C [30] of 8.73%. The viability, T/C [31] was 106%, the viability, T/C [32] was 55.2% and the viability, T/C [33] was 25%. For the same molecule, the viability, T/C [34] was 15%, the viability, T/C [35] was 13% and the viability, T/C [36] was 8.18%.
`CC1COCCN1c1cc(C2(S(C)(=N)=O)CC2)nc(-c2ccnc3[nH]ccc23)n1` (stereo not drawn) + Nc1ccc(C#CCN(C(=O)Cc2ncc(C(F)(F)F)cc2C(F)(F)F)c2ccc(F)cc2)nn1 showed an IC50 (second compound 0.0316 µM) of 1.81 µM, an IC50 (second compound 0.1 µM) of 1.79 µM and an IC50 (second compound 0.316 µM) of 1.89 µM. For the same molecule, the IC50 (second compound 1 µM) was 1.78 µM, the IC50 (second compound 3.16 µM) was 1.66 µM and the IC50 (second compound 10 µM) was 1.64 µM. It also gave a viability, T/C [1] of 103%, a viability, T/C [2] of 96.5% and a viability, T/C [3] of 102%. The viability, T/C [4] was 88.1%, the viability, T/C [5] was 14.1% and the viability, T/C [6] was 9.47%. For the same molecule, the viability, T/C [7] was 97.2%, the viability, T/C [8] was 90.5% and the viability, T/C [9] was 93%. It also gave a viability, T/C [10] of 85.9%, a viability, T/C [11] of 14.8% and a viability, T/C [12] of 10.2%. It also gave a viability, T/C [13] of 109%, a viability, T/C [14] of 102% and a viability, T/C [15] of 110%. It also gave a viability, T/C [16] of 93.6%, a viability, T/C [17] of 14.8% and a viability, T/C [18] of 10.7%. It also gave a viability, T/C [19] of 99.4%, a viability, T/C [20] of 105% and a viability, T/C [21] of 98.8%. For the same molecule, the viability, T/C [22] was 84.8%, the viability, T/C [23] was 15.2% and the viability, T/C [24] was 8.83%. The viability, T/C [25] was 109%, the viability, T/C [26] was 104% and the viability, T/C [27] was 118%. For the same molecule, the viability, T/C [28] was 78.7%, the viability, T/C [29] was 15% and the viability, T/C [30] was 8.91%. The viability, T/C [31] was 105%, the viability, T/C [32] was 94.5% and the viability, T/C [33] was 97.6%. It also gave a viability, T/C [34] of 77.1%, a viability, T/C [35] of 14.3% and a viability, T/C [36] of 8.26%.
